Assay results reported in ChEMBL document CHEMBL1136267, “Design and synthesis of novel PPARalpha/gamma/delta triple activators using a known PPARalpha/gamma dual activator as structural template” (Bioorg Med Chem Lett, 2003).

Tests used:
[1] = target: T1, Peroxisome proliferator-activated receptor alpha (Homo sapiens, UniProt Q07869)
T1 sequence (Q07869 whole entry): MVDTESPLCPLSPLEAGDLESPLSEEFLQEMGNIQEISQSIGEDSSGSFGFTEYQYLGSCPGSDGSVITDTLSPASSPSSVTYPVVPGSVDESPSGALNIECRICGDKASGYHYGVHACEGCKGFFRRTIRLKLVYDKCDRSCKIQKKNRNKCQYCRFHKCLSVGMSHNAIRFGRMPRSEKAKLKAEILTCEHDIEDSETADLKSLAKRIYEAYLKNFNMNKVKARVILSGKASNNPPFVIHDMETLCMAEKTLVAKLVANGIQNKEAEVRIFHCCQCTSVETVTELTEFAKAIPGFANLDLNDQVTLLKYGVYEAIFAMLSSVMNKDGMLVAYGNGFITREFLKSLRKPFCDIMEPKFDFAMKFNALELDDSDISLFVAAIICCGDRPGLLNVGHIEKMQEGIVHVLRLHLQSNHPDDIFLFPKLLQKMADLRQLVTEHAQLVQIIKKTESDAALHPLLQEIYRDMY
Description: In vitro activation of human peroxisome proliferator activated receptor alpha

[2] = target: T2, Peroxisome proliferator-activated receptor delta (Homo sapiens, UniProt Q03181); assay: In vitro activation of human peroxisome proliferator activated receptor delta (PPAR delta)
T2 sequence (Q03181 whole entry): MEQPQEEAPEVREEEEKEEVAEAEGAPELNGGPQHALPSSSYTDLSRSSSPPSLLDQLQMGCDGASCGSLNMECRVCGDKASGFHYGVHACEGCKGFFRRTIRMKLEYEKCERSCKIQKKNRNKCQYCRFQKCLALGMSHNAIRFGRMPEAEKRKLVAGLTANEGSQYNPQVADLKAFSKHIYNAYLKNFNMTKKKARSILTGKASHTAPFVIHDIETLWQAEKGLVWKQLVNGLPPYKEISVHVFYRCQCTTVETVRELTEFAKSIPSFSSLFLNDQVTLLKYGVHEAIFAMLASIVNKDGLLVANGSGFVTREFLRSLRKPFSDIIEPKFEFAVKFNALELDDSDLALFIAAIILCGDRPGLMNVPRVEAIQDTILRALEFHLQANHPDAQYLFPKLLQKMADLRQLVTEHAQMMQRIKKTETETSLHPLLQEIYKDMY

[3] = target: T3, Peroxisome proliferator-activated receptor gamma (Homo sapiens, UniProt P37231); assay: In vitro activation of human peroxisome proliferator activated receptor gamma (PPAR gamma)
T3 sequence (P37231 whole entry): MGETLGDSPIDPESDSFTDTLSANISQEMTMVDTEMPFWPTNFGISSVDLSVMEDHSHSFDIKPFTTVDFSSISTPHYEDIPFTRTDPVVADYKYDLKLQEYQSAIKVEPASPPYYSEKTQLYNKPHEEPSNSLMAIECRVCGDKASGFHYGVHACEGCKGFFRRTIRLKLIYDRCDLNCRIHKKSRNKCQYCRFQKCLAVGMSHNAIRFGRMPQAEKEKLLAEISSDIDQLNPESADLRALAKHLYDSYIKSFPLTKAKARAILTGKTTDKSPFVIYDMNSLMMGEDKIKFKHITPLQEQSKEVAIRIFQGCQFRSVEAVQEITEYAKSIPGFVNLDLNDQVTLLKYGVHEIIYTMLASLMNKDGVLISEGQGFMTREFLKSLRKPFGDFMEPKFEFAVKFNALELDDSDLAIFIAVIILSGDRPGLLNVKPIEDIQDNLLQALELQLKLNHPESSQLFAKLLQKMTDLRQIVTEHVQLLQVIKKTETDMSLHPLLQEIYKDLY

Compound	EC50 [1] [nM]	EC50 [2] [nM]	EC50 [3] [nM]
CCO[C@@H](Cc1ccc(OC/C=C(/c2ccccc2)c2ccc(Br)cc2)cc1)C(=O)O	2200	3400	4300
CCO[C@@H](Cc1ccc(OC/C=C(\c2ccccc2)c2ccc(Br)cc2)cc1)C(=O)O	1100	900	1500
CCO[C@@H](Cc1ccc(OC/C=C(/c2ccccc2)c2ccc(F)cc2)cc1)C(=O)O	3200	3400	4000
CCO[C@@H](Cc1ccc(OCC=C(c2ccc(OC)cc2)c2ccc(OC)cc2)cc1)C(=O)O	2200	700	2200
CCO[C@@H](Cc1ccc(OCC=C(c2ccc(Br)cc2)c2ccc(Br)cc2)cc1)C(=O)O	300	400	900
CCO[C@@H](Cc1ccc(OC/C=C(\c2ccccc2)c2ccc(-c3ccco3)cc2)cc1)C(=O)O	300	600	800
CCO[C@@H](Cc1ccc(OCCN(c2ccccc2)c2ccccc2)cc1)C(=O)O	4500	–	3300
CCO[C@@H](Cc1ccc(OC/C=C(/c2ccccc2)c2ccc(-c3ccccc3)cc2)cc1)C(=O)O	700	2200	1700
CCO[C@@H](Cc1ccc(OCC=C(c2ccc(C)cc2)c2ccc(C)cc2)cc1)C(=O)O	700	2000	3100
CCO[C@@H](Cc1ccc(OCC=C(c2ccccc2)c2ccccc2)cc1)C(=O)O	6400	5700	2700
CCO[C@@H](Cc1ccc(OCC=C(c2ccc(-c3ccccc3)cc2)c2ccc(-c3ccccc3)cc2)cc1)C(=O)O	1100	500	300
CCO[C@@H](Cc1ccc(OCC=C(c2ccc(-c3ccco3)cc2)c2ccc(-c3ccco3)cc2)cc1)C(=O)O	2000	1000	2900
CCO[C@@H](Cc1ccc(OC/C=C(/c2ccccc2)c2ccc(-c3ccco3)cc2)cc1)C(=O)O	400	2000	2000
CCO[C@@H](Cc1ccc(OC/C=C(\c2ccccc2)c2ccc(-c3ccccc3)cc2)cc1)C(=O)O	900	2200	600
CCO[C@@H](Cc1ccc(OC/C=C(\c2ccccc2)c2ccc(F)cc2)cc1)C(=O)O	5300	8300	8500
